Test results published in US8383647B2, “Quinoline derivative” (Takeda Pharmaceutical Company Limited, priority 2009, dated 2013).
Counter-ions that a name gives are not always drawn.

What was measured:
rat SLC-1 = rat SLC-1 (Rattus norvegicus, UniProt P97639); test: MCH receptor antagonistic activity (inhibitory activity, Experimental Example 1); type: biochemical
human SLC-1 = human SLC-1 (Homo sapiens, UniProt Q99705); test: as above; type: biochemical
Sequence of human SLC-1 (Q99705 whole entry): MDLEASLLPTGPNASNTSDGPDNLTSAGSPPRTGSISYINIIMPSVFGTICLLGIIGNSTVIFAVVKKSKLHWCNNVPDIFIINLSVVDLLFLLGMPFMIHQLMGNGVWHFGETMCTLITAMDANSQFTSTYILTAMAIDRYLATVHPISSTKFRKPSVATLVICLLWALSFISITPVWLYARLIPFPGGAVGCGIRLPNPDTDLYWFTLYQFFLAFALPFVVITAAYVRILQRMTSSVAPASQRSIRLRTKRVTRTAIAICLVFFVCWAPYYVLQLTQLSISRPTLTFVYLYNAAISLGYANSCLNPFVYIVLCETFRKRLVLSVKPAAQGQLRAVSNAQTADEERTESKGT

Sequence of rat SLC-1 (P97639 whole entry): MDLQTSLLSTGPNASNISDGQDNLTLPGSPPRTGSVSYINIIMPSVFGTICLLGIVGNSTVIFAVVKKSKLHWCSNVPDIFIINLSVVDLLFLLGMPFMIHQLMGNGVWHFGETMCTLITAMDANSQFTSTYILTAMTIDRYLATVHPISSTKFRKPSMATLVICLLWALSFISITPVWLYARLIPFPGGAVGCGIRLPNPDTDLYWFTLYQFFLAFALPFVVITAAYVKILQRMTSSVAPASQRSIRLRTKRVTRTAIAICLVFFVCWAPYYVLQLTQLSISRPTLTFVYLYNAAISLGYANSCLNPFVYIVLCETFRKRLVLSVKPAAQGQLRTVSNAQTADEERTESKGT

Row | SMILES | melting point | IC50 (rat SLC-1) | IC50 (human SLC-1)
1 | COC(C)(C)CNCc1cnc2c(C)c(NC(=O)c3ccc(OC[C@@H]4CCCO4)cc3)ccc2c1 (as salt: hydrochloride) [Example 30, N-(3-{[(2-methoxy-2-methylpropyl)amino]methyl}-8-methylquinolin-7-yl)-4-[(2S)-tetrahydrofuran-2-ylmethoxy]benzamide dihydrochloride] | 235 to 237 °C |  | 
2 | Cc1c(NC(=O)c2ccc(OC[C@@H]3CCCO3)cc2)ccc2cc(CNCC3(O)CCCCC3)cnc12 (as salt: hydrochloride) [Example 41, N-[3-({[(1-hydroxycyclohexyl)methyl]amino}methyl)-8-methylquinolin-7-yl]-4-[(2S)-tetrahydrofuran-2-ylmethoxy]benzamide dihydrochloride] | 242 to 244 °C |  | 
3 | Cc1c(NC(=O)c2ccc(OCC3CCOC3)cc2)ccc2cc(CNCC(C)C)cnc12 (single isomer, unassigned) [Example 61, N-(8-methyl-3-{[(2-methylpropyl)amino]methyl}quinolin-7-yl)-4-(tetrahydrofuran-3-ylmethoxy)benzamide] |  | 2.1 nM | 2.2 nM
4 | Cc1c(NC(=O)c2ccc(OCC3CCCO3)cc2)ccc2cc(CNCC(C)(C)O)cnc12 (stereo not shown) [Example 1, N-(3-{[(2-hydroxy-2-methylpropyl)amino]methyl}-8-methylquinolin-7-yl)-4-(tetrahydrofuran-2-ylmethoxy)benzamide] | 138 °C |  | 
5 | Cc1c(NC(=O)c2ccc(OCC3CCCO3)cc2)ccc2cc(CN[C@H]3CCCC[C@@H]3O)cnc12 (stereo partly drawn) [Example 3, N-[3-({[(1S,2S)-2-hydroxycyclohexyl]amino}methyl)-8-methylquinolin-7-yl]-4-(tetrahydrofuran-2-ylmethoxy)benzamide] | 197 °C |  | 
6 | Cc1c(NC(=O)c2ccc(OCC3CCOC3)cc2)ccc2cc(CNC(C)C)cnc12 (stereo not shown) [Example 7, N-(8-methyl-3-{[(1-methylethyl)amino]methyl}quinolin-7-yl)-4-(tetrahydrofuran-3-ylmethoxy)benzamide] | 106 °C |  | 
7 | Cc1c(NC(=O)c2ccc(OCC3CCOC3)cc2)ccc2cc(CNC3CCCC3)cnc12 (stereo not shown) [Example 16, N-{3-[(cyclopentylamino)methyl]-8-methylquinolin-7-yl}-4-(tetrahydrofuran-3-ylmethoxy)benzamide] | 148 to 149 °C | 3.2 nM | 2.8 nM
8 | Cc1c(NC(=O)c2ccc(OC[C@H]3CCCO3)cc2)ccc2cc(CNCC(C)(C)C)cnc12 [Example 25, N-(3-{[(2,2-dimethylpropyl)amino]methyl}-8-methylquinolin-7-yl)-4-[(2R)-tetrahydrofuran-2-ylmethoxy]benzamide] | 110 to 111 °C | 3.5 nM | 3.4 nM
9 | Cc1c(NC(=O)c2ccc(OC[C@@H]3CCCO3)cc2)ccc2cc(CNC[C@H]3CCCO3)cnc12 [Example 27, N-[8-methyl-3-({[(2R)-tetrahydrofuran-2-ylmethyl]amino}methyl)quinolin-7-yl]-4-[(2S)-tetrahydrofuran-2-ylmethoxy]benzamide] | 92 to 94 °C | 7.8 nM | 6.3 nM
10 | Cc1c(NC(=O)c2ccc(OC[C@@H]3CCCO3)cc2)ccc2cc(CNC[C@@H]3CCCO3)cnc12 [Example 29, N-[8-methyl-3-({[(2S)-tetrahydrofuran-2-ylmethyl]amino}methyl)quinolin-7-yl]-4-[(2S)-tetrahydrofuran-2-ylmethoxy]benzamide] | 93 to 94 °C | 4.6 nM | 3.2 nM
11 | COC(C)(C)CNCc1cnc2c(C)c(NC(=O)c3ccc(OC[C@@H]4CCCO4)cc3)ccc2c1 [Example 30, N-(3-{[(2-methoxy-2-methylpropyl)amino]methyl}-8-methylquinolin-7-yl)-4-[(2S)-tetrahydrofuran-2-ylmethoxy]benzamide dihydrochloride] |  | 11 nM | 8.4 nM
12 | Cc1c(NC(=O)c2ccc(OC[C@@H]3CCCO3)cc2)ccc2cc(CNCC3CCOCC3)cnc12 [Example 32, N-(8-methyl-3-{[(tetrahydro-2H-pyran-4-ylmethyl)amino]methyl}quinolin-7-yl)-4-[(2S)-tetrahydrofuran-2-ylmethoxy]benzamide] | 92 to 94 °C | 6.4 nM | 6 nM
13 | Cc1c(NC(=O)c2ccc(OC[C@@H]3CCCO3)cc2)ccc2cc(CNCC3(C)COC3)cnc12 [Example 34, N-[8-methyl-3-({[(3-methyloxetan-3-yl)methyl]amino}methyl)quinolin-7-yl]-4-[(2S)-tetrahydrofuran-2-ylmethoxy]benzamide] | 117 to 119 °C | 6.5 nM | 5.5 nM
14 | CCNCc1cnc2c(C)c(NC(=O)c3ccc(OC[C@@H]4CCCO4)cc3)ccc2c1 [Example 35, N-{3-[(ethylamino)methyl]-8-methylquinolin-7-yl}-4-[(2S)-tetrahydrofuran-2-ylmethoxy]benzamide] | 149 to 151 °C | 17 nM | 7.1 nM
15 | Cc1c(NC(=O)c2ccc(OC[C@@H]3CCCO3)cc2)ccc2cc(CNC3CCCC3)cnc12 [Example 36, N-{3-[(cyclopentylamino)methyl]-8-methylquinolin-7-yl}-4-[(2S)-tetrahydrofuran-2-ylmethoxy]benzamide] | 152 to 153 °C | 3 nM | 1.7 nM
16 | Cc1c(NC(=O)c2ccc(OC[C@@H]3CCCO3)cc2)ccc2cc(CNCC3CC3)cnc12 [Example 37, N-(3-{[(cyclopropylmethyl)amino]methyl}-8-methylquinolin-7-yl)-4-[(2S)-tetrahydrofuran-2-ylmethoxy]benzamide] | 156 to 158 °C | 4.1 nM | 3 nM
17 | Cc1c(NC(=O)c2ccc(OC[C@@H]3CCCO3)cc2)ccc2cc(CNCC(C)C)cnc12 [Example 38, N-(8-methyl-3-{[(2-methylpropyl)amino]methyl}quinolin-7-yl)-4-[(2S)-tetrahydrofuran-2-ylmethoxy]benzamide] | 142 to 143 °C | 1.7 nM | 1.5 nM
18 | Cc1c(NC(=O)c2ccc(OC[C@@H]3CCCO3)cc2)ccc2cc(CNCC(C)(C)C)cnc12 [Example 39, N-(3-{[(2,2-dimethylpropyl)amino]methyl}-8-methylquinolin-7-yl)-4-[(2S)-tetrahydrofuran-2-ylmethoxy]benzamide] | 114 to 116 °C | 2 nM | 1.8 nM
19 | Cc1c(NC(=O)c2ccc(OC[C@H]3CCCO3)cc2)ccc2cc(CN[C@H]3CC[C@H](O)CC3)cnc12 [Example 40, N-(3-{[(trans-4-hydroxycyclohexyl)amino]methyl}-8-methylquinolin-7-yl)-4-[(2R)-tetrahydrofuran-2-ylmethoxy]benzamide] | 182 to 183 °C | 13 nM | 7.7 nM
20 | Cc1c(NC(=O)c2ccc(OC[C@@H]3CCCO3)cc2)ccc2cc(CNCC3(O)CCCCC3)cnc12 [Example 41, N-[3-({[(1-hydroxycyclohexyl)methyl]amino}methyl)-8-methylquinolin-7-yl]-4-[(2S)-tetrahydrofuran-2-ylmethoxy]benzamide dihydrochloride] |  | 1.6 nM | 1.5 nM
21 | CCCNCc1cnc2c(C)c(NC(=O)c3ccc(OC[C@@H]4CCCO4)cc3)ccc2c1 [Example 45, N-{8-methyl-3-[(propylamino)methyl]quinolin-7-yl}-4-[(2S)-tetrahydrofuran-2-ylmethoxy]benzamide] | 121 to 122 °C | 5.8 nM | 3.1 nM
22 | Cc1c(NC(=O)c2ccc(OC[C@@H]3CCCO3)cc2)ccc2cc(CN[C@@H]3CCCC[C@H]3O)cnc12 [Example 46, N-[3-({[(1R,2R)-2-hydroxycyclohexyl]amino}methyl)-8-methylquinolin-7-yl]-4-[(2S)-tetrahydrofuran-2-ylmethoxy]benzamide] | 142 to 143 °C | 6.5 nM | 4.5 nM
23 | Cc1c(NC(=O)c2ccc(OC[C@H]3CCCO3)cc2)ccc2cc(CN[C@H]3CC[C@](C)(O)CC3)cnc12 [Example 51, N-(3-{[(trans-4-hydroxy-4-methylcyclohexyl)amino]methyl}-8-methylquinolin-7-yl)-4-[(2R)-tetrahydrofuran-2-ylmethoxy]benzamide] |  | 5.3 nM | 4.1 nM
24 | Cc1c(NC(=O)c2ccc(OC[C@H]3CCCO3)cc2)ccc2cc(CN[C@H]3CC[C@@](C)(O)CC3)cnc12 [Example 53, N-(3-{[(cis-4-hydroxy-4-methylcyclohexyl)amino]methyl}-8-methylquinolin-7-yl)-4-[(2R)-tetrahydrofuran-2-ylmethoxy]benzamide] | 163 to 164 °C |  | 
25 | Cc1c(NC(=O)c2ccc(OCC3CCOC3)cc2)ccc2cc(CNCC(C)C)cnc12 (stereo not shown) [Example 59, N-(8-methyl-3-{[(2-methylpropyl)amino]methyl}quinolin-7-yl)-4-(tetrahydrofuran-3-ylmethoxy)benzamide] | 132 °C |  | 
26 | Cc1c(NC(=O)c2ccc(OCC3CCOC3)cc2)ccc2cc(CNCC(C)C)cnc12 (stereo not shown) [Example 60, N-(8-methyl-3-{[(2-methylpropyl)amino]methyl}quinolin-7-yl)-4-(tetrahydrofuran-3-ylmethoxy)benzamide] | 130 to 131 °C |  | 
27 | Cc1c(NC(=O)c2ccc(OCC3CCOC3)cc2)ccc2cc(CN[C@H]3CC[C@](C)(O)CC3)cnc12 (stereo partly drawn) [Example 64, N-(3-{[(trans-4-hydroxy-4-methylcyclohexyl)amino]methyl}-8-methylquinolin-7-yl)-4-(tetrahydrofuran-3-ylmethoxy)benzamide] | 98 to 101 °C |  | 
28 | COC(C)(C)CNCc1cnc2c(C)c(NC(=O)c3ccc(OCC4CCOC4)cc3)ccc2c1 (stereo not shown) [Example 65, N-(3-{[(2-methoxy-2-methylpropyl)amino]methyl}-8-methylquinolin-7-yl)-4-(tetrahydrofuran-3-ylmethoxy)benzamide] | 137 °C |  | 
29 | Cc1c(NC(=O)c2ccc(OCC3CCOC3)cc2)ccc2cc(CN3CCC(C)(O)CC3)cnc12 (stereo not shown) [Example 66, N-{3-[(4-hydroxy-4-methylpiperidin-1-yl)methyl]-8-methylquinolin-7-yl}-4-(tetrahydrofuran-3-ylmethoxy)benzamide] | 160 to 162 °C |  | 
